Assay results from patent US11390622B2, “Pyrimido-isoquinolin-quinone derivative compounds, and pharmaceutically acceptable salts, isomers and tautomers thereof; pharmaceutical composition; preparation method; and use thereof in the treatment of diseases caused by bacteria and multidrug-resistant bacteria” (Universidad de Chile, priority 2015, dated 2022).
≈ marks a conversion by molar mass, not a printed value. Like-named read-outs stand apart in the source and are kept apart here.

What was measured:
[1] = tested on: Pseudomona aeruginosa ATCC 27853; test: CIM antibacterial activity screening (broth microdilution); type: cell-based; settings: Pseudomonas aeruginosa
Description: (§1) These compounds were tested for their in vitro activity (Screening Antibacterial Activity CIM (μg/mL)) and the results are shown in Table II.
(§2) Bacteria used: A panel of prototype strains was used to screen for antibacterial activity in the compounds: • Methicillin-resistant Staphylococcus aureus ATCC© 43300. • Methicillin-sensitive Staphylococcus aureus ATCC© 29213. • Enterococcus faecalis ATCC© 29212. • Escherichia coli ATCC© 25922. • Pseudomonas aeruginosa ATCC© 27853.
(§3) The strains were planted from the ceparium (where they were preserved in 50% v/v glycerol and Brain Heart Infusion culture broth, at −20° C.) in Mueller-Hinton agar (Oxoid, England).
(§4) The concentrations to be tested ranged from 32 to 0.0625 μg/mL. The wells in columns 11 and 12 were used for positive growth control and sterility control respectively.
(§5) Once the plate was prepared, 100 uL of the bacterial suspension to be tested were added, previously adjusted to 0.5 Mc Farland, in each of the wells, excluding the wells in column 12. Finally, the plates were covered and incubated at 36° C. for 18 to 24 hours. Then, the plates were observed using contrast light to determine the concentration at which bacterial growth is inhibited (indicated by the disappearance of turbidity).
(§6) All trials were conducted three times, and results were considered valid if the internal controls of each plate (growth and sterility controls) were adequate. MIC antibiotic control (ciprofloxacin, gentamicin and vancomycin) was assessed and contrasted with the permitted quality control ranges given by CLSI. If the MIC detected in the trial was within the permitted ranges, the trial was accepted as valid.

[2] = tested on: Enterococcus faecalis ATCC 29212; test: as above; type: cell-based
Description: as §1, §2, §3, §4, §5, §6

[3] = tested on: Eschericha coli ATCC 25922; test: as above; type: cell-based; settings: Escherichia coli
Description: as §1, §2, §3, §4, §5, §6

[4] = tested on: Methicillin sensitive Staphylococcus aureus ATCC 29213; test: as above; type: cell-based
Description: as §1, §2, §3, §4, §5, §6

[5] = tested on: Methicillin resistant Staphylococcus aureus ATCC 43300; test: as above; type: cell-based
Description: as §1, §2, §3, §4, §5, §6

[6] = ATCC27853, Pseudomona aeruginosa ATCC 27853, read-out: CIM
[7] = ATCC29212, Enterococcus faecalis ATCC 29212, read-out: CIM
[8] = ATCC25922, Eschericha coli ATCC 25922, read-out: CIM
[9] = ATCC29213, Methicillin sensitive Staphylococcus aureus ATCC 29213, read-out: CIM
[10] = ATCC43300, Methicillin resistant Staphylococcus aureus ATCC 43300, read-out: CIM
[11] = Enterococcus faecalis, ATCC29212, read-out: CIM
[12] = Staphylococcus aureus, ATCC29213, read-out: CIM
[13] = Staphylococcus aureus, ATCC43300, read-out: CIM

Compound | MIC [1, 6] [µg/mL] | MIC [2, 7] [µg/mL] | MIC [3, 8] [µg/mL] | MIC [4, 9] [µg/mL] | MIC [5, 10] [µg/mL] | melting point [°C] | MIC ([1]; ATCC27853, read-out: CIM) [µg/mL] | MIC [2, 11] [µg/mL] | MIC ([3]; ATCC25922, read-out: CIM) [µg/mL] | MIC [4, 12] [µg/mL] | MIC [5, 13] [µg/mL]
CCc1nc2c(c3c1C(=O)C=CC3=O)c(=O)n(C)c(=O)n2C [Molecule 1, 6-ethyl-2,4-dimethylpyrimido[4,5-c]isoquinoline-1,3,7,10(2H,4H)-tetraone] | > 32 | > 32 | > 32 | ≥ 32 | ≥ 32 | 167.6 to 167.9 |  |  |  |  | 
CCc1nc2c(c3c1C(=O)C(Sc1ccccc1)=CC3=O)c(=O)n(C)c(=O)n2C [Molecule 2, 6-ethyl-2,4-dimethyl-8-(phenythio)pyrimido[4,5-c]isoquinoline-1,3,7,10(2H,4H)-tetraone] |  |  |  |  |  | 179.4 to 180 | ≥ 32 | 8 (≈ 19.6 µM) | ≥ 32 | 8 (≈ 19.6 µM) | 8 (≈ 19.6 µM)
CCc1nc2c(c3c1C(=O)C(Sc1ccccc1C)=CC3=O)c(=O)n(C)c(=O)n2C [Molecule 3, 6-ethyl-2,4-dimethyl-8-(o-tolylthio)pyrimido[4,5-c]isoquinoline-1,3,7,10(2H,4H)-tetraone] | ≥ 32 | ≥ 32 | ≥ 32 | 32 (≈ 75.9 µM) | 32 (≈ 75.9 µM) | 206 to 210.9 |  |  |  |  | 
CCc1nc2c(c3c1C(=O)C(Sc1ccccc1OC)=CC3=O)c(=O)n(C)c(=O)n2C [Molecule 4, 6-ethyl-8-(2-methoxyphenylthio)-2,4-dimethyl pyrimido[4,5-c]isoquinoline-1,3,7,10(2H,4H)-tetraone] | ≥ 32 | 4 (≈ 9.14 µM) | ≥ 32 | 4 (≈ 9.14 µM) | 2 (≈ 4.57 µM) |  |  |  |  |  | 
CCc1nc2c(c3c1C(=O)C(Sc1ccccc1F)=CC3=O)c(=O)n(C)c(=O)n2C [Molecule 5, 6-ethyl-8-((2-fluorophenyl)thio)-2,4-dimethyl pyrimido[4,5-c]isoquinoline-1,3,7,10(2H, 4H)-tetraone] | ≥ 32 | ≥ 32 | ≥ 32 | ≥ 32 | ≥ 32 |  |  |  |  |  | 
CCc1nc2c(c3c1C(=O)C(Sc1ccccc1Cl)=CC3=O)c(=O)n(C)c(=O)n2C [Molecule 6, 8-((2-chlorophenyl)thio)-6-ethyl-2,4-dimethyl pyrimido[4,5-c]isoquinoline-1,3,7,10(2H,4H)-tetraone] |  |  |  |  |  |  | ≥ 32 | ≥ 32 | ≥ 32 | ≥ 32 | ≥ 32
CCc1nc2c(c3c1C(=O)C(Sc1ccc(C)cc1)=CC3=O)c(=O)n(C)c(=O)n2C [Molecule 13, 6-ethyl-2,4-dimethyl-8-(p-tolylthio)pyrimido[4,5-c]isoquinoline-1,3,7,10(2H,4H)-tetraone] | ≥ 32 | 16 (≈ 38 µM) | ≥ 32 | 4 (≈ 9.49 µM) | 4 (≈ 9.49 µM) | 191 to 192.3 |  |  |  |  | 
CCc1nc2c(c3c1C(=O)C(Sc1ccc(OC)cc1)=CC3=O)c(=O)n(C)c(=O)n2C [Molecule 14, 6-ethyl-8-(4-methoxythiophenyl)-2,4-dimethylpyrimido[4,5-c]isoquinoline-1,3,7,10(2H,4H)-tetraone] | ≥ 32 | 16 (≈ 36.6 µM) | ≥ 32 | 16 (≈ 36.6 µM) | 16 (≈ 36.6 µM) | 198.9 to 201.5 |  |  |  |  | 
CCc1nc2c(c3c1C(=O)C(Sc1ccc(Cl)cc1)=CC3=O)c(=O)n(C)c(=O)n2C [Molecule 16, 8-(4-chlorothiophenyl)-6-ethyl-2,4-dimethylpyrimido[4,5-c]isoquinoline-1,3,7,10(2H, 4H)-tetraone] |  |  |  |  |  | 196.5 to 198.3 | ≥ 32 | 4 (≈ 9.05 µM) | ≥ 32 | 4 (≈ 9.05 µM) | 4 (≈ 9.05 µM)

The next lines start with results.

MIC [1, 6] [µg/mL] | MIC [2, 7] [µg/mL] | MIC [3, 8] [µg/mL] | MIC [4, 9] [µg/mL] | MIC [5, 10] [µg/mL] | melting point [°C] | Compound | MIC ([1]; ATCC27853, read-out: CIM) [µg/mL] | MIC [2, 11] [µg/mL] | MIC ([3]; ATCC25922, read-out: CIM) [µg/mL] | MIC [4, 12] [µg/mL] | MIC [5, 13] [µg/mL]
≥ 32 | 2 (≈ 4.11 µM) | ≥ 32 | 4 (≈ 8.22 µM) | 1 (≈ 2.06 µM) |  | CCc1nc2c(c3c1C(=O)C(Sc1ccccc1Br)=CC3=O)c(=O)n(C)c(=O)n2C [Molecule 7, 8-((2-bromophenyl)thio)-6-ethyl-2,4-dimethylpyrimido[4,5-c]isoquinoline-1,3,7,10(2H,4H)-tetraone] |  |  |  |  | 
≥ 32 | 4 (≈ 9.49 µM) | ≥ 32 | 4 (≈ 9.49 µM) | 4 (≈ 9.49 µM) | 162 to 163 | CCc1nc2c(c3c1C(=O)C(Sc1cccc(C)c1)=CC3=O)c(=O)n(C)c(=O)n2C [Molecule 8, 6-ethyl-2,4-dimethyl-8-(m-tolylthio)pyrimido[4,5c]isoquinoline-1,3,7,10(2H,4H)-tetraone] |  |  |  |  | 
≥ 32 | 4 (≈ 9.14 µM) | ≥ 32 | 8 (≈ 18.3 µM) | 4 (≈ 9.14 µM) | 179.5 to 180.5 | CCc1nc2c(c3c1C(=O)C(Sc1cccc(OC)c1)=CC3=O)c(=O)n(C)c(=O)n2C [Molecule 9, 6-ethyl-8-(3-methoxythiophenyl)-2,4-dimethylpyrimido[4,5-c]isoquinoline-1,3,7,10(2H,4H)-tetraone] |  |  |  |  | 
≥ 32 | 8 (≈ 18.8 µM) | ≥ 32 | 4 (≈ 9.4 µM) | 4 (≈ 9.4 µM) | 170 to 171 | CCc1nc2c(c3c1C(=O)C(Sc1cccc(F)c1)=CC3=O)c(=O)n(C)c(=O)n2C [Molecule 10, 6-ethyl-8-(3-fluorothiophenyl)-2,4-dimethylpyrimido[4,5-c]isoquinoline-1,3,7,10(2H,4H)-tetraone] |  |  |  |  | 
≥ 32 | 4 (≈ 9.05 µM) | ≥ 32 | 32 (≈ 72.4 µM) | 2 (≈ 4.53 µM) | 156.1 to 157.1 | CCc1nc2c(c3c1C(=O)C(Sc1cccc(Cl)c1)=CC3=O)c(=O)n(C)c(=O)n2C [Molecule 11, 8-(3-chlorothiophenyl)-6-ethyl-2,4-dimethylpyrimido[4,5-c]isoquinoline-1,3,7,10(2H,4H)-tetraone] |  |  |  |  | 
≥ 32 | 4 (≈ 8.22 µM) | ≥ 32 | 32 (≈ 65.8 µM) | 2 (≈ 4.11 µM) | 138.3 to 139.3 | CCc1nc2c(c3c1C(=O)C(Sc1cccc(Br)c1)=CC3=O)c(=O)n(C)c(=O)n2C [Molecule 12, 8-(3-bromothiophenyl)-6-ethyl-2,4-dimethylpyrimido[4,5-c]isoquinoline-1,3,7,10(2, 4H)-tetraone] |  |  |  |  | 
≥ 32 | 8 (≈ 18.8 µM) | ≥ 32 | 8 (≈ 18.8 µM) | 8 (≈ 18.8 µM) | 194.9 to 195.4 | CCc1nc2c(c3c1C(=O)C(Sc1ccc(F)cc1)=CC3=O)c(=O)n(C)c(=O)n2C [Molecule 15, 6-ethyl-8-(4-fluorothiophenyl)-2,4-dimethylpyrimido[4,5-c]isoquinoline-1,3,7,10(2H, 4H)-tetraone] |  |  |  |  | 
≥ 32 | 8 (≈ 16.4 µM) | ≥ 32 | 8 (≈ 16.4 µM) | 4 (≈ 8.22 µM) | 197.9 to 198.7 | CCc1nc2c(c3c1C(=O)C(Sc1ccc(Br)cc1)=CC3=O)c(=O)n(C)c(=O)n2C [Molecule 17, 8-(4-bromothiophenyl)-6-ethyl-2,4-dimethylpyrimido[4,5-c]isoquinoline-1,3,7,10(2H,4H)-tetraone] |  |  |  |  | 
